According to patent US8207342B2, “Substituted 3-amino-2-mercaptoquinolines as KCNQ2/3 modulators” (Gruenenthal GmbH, priority 2009, dated 2012):

Assays:
KCNQ2/3 channels = target: T1, KCNQ2/3 channels (Homo sapiens, UniProt O43525+O43526); assay: Fluorescence assay using a voltage sensitive dye (fluorimetry); assay type: cell-based; settings: CHO-K1 cells expressing KCNQ2/3 channels; for EC50: agonistic activity; for Emax: relative to retigabine = 100%, read-out: Fluorimetry % efficacy (retigabine = 100%)
T1 construct: expressed in transfected cells
Procedure: Fluorescence Assay using a Voltage Sensitive Dye
Human CHO—K1 cells expressing KCNQ2/3 channels are cultivated adherently at 37° C., 5% CO2 and 95% humidity in cell culture bottles (e.g. 80 cm^2 TC flasks, Nunc) with DMEM-high glucose (Sigma Aldrich, D7777) including 10% FCS (PAN Biotech, e.g. 3302-P270521) or alternatively MEM Alpha Medium (1×, liquid, Invitrogen, #22571), 10% fetal calf serum (FCS) (Invitrogen, #10270-106, heat-inactivated) and the necessary selection antibiotics.
Before being sown out for the measurements, the cells are washed with a 1×DPBS buffer without Ca^2+/Mg^2+ (e.g. Invitrogen, #14190-094) and detached from the bottom of the culture vessel by means of Accutase (PAA Laboratories, #L11-007) (incubation with Accutase for 15 min at 37° C.). The cell count then present is determined using a CASY™ cell counter (TCC model, Schärfe System) in order subsequently to apply, depending on the density optimization for the individual cell line, 20,000-30,000 cells/well/100 μl of the described nutrient medium to 96-well measuring plates of the Corning™ CellBIND™ type (Flat Clear Bottom Black Polystyrene Microplates, #3340). Incubation is then carried out for one hour at room temperature, without gassing or adjusting the humidity, followed by incubation for 24 hours at 37° C., 5% CO2 and 95% humidity.
The voltage-sensitive fluorescent dye from the Membrane Potential Assay Kit (Red™ Bulk format part R8123 for FLIPR, MDS Analytical Technologies™) is prepared by dissolving the contents of a vessel Membrane Potential Assay Kit Red Component A in 200 ml of extracellular buffer (ES buffer, 120 mM NaCl, 1 mM KCl, 10 mM HEPES, 2 mM CaCl2, 2 mM MgCl2, 10 mM glucose; pH 7.4). After removal of the nutrient medium, the cells are washed with 200 μl of ES buffer, then covered with a layer of 100 μl of the dye solution prepared above and incubated for 45 min at room temperature with the exclusion of light.
The fluorescence measurements are carried out with a BMG Labtech FLUOstar™, BMG Labtech NOVOstar™ or BMG Labtech POLARstar™ instrument (525 nm excitation, 560 nm emission, Bottom Read mode). After incubation of the dye, 50 μl of the test substances in the desired concentrations, or 50 μl of ES buffer for control purposes, are introduced into separate cavities of the measuring plate and incubated for 30 min at room temperature while being shielded from light. The fluorescence intensity of the dye is then measured for 5 min and the fluorescence value F1 of each well is thus determined at a given, constant time. 15 μl of a […] KCl solution ([…]) are then added to each well. The change in fluorescence is subsequently measured until all the relevant measured values have been obtained (mainly 5-30 min). At a given time after KCl application, a fluorescence value F2 is determined, in this case at the time of the fluorescence peak.
For calculation, the fluorescence intensity F2 is compared with the fluorescence intensity F1, and the agonistic activity of the target compound on the potassium channel is determined therefrom. F2 and F1 are calculated as follows: […]
In order to determine whether a substance has agonistic activity,
A substance has an agonistic activity on the potassium channel when
[formula] it is possible to conclude that a target compound has agonistic activity if an increase in
Calculations of EC50 values are carried out with the aid of ‘Prism v4.0’ software (GraphPad Software™).

[1] = test system: formalin-induced pain behaviour; assay: Formalin test, mouse (phase 2, chronic pain component); assay type: in vivo; settings: change in percent compared with vehicle control
Procedure: Formalin Test, Mouse The formalin test (Dubuisson, D. and Dennis, S. G., 1977, Pain, 4, 161-174) represents a model for both acute and chronic pain. By means of a single formalin injection into the dorsal side of a rear paw, a biphasic nociceptive reaction is induced in freely mobile test animals; the reaction is detected by observing three behaviour patterns which are clearly distinguishable from one another. The reaction is two-phase: phase 1=immediate reaction (duration up to 10 min; shaking of the paw, licking), phase 2=late reaction (after a rest phase; likewise shaking of the paw, licking; duration up to 60 min). The 1st phase reflects a direct stimulation of the peripheral nocisensors with high spinal nociceptive input (acute pain phase); the 2nd phase reflects a spinal and peripheral hypersensitization (chronic pain phase). In the studies described here, the chronic pain component (phase 2) has been evaluated. Formalin in a volume of 20 μl and a concentration of 1% is administered subcutaneously into the dorsal side of the right rear paw of each animal. The specific changes in behaviour, such as lifting, shaking or licking of the paw (score 3, Dubuisson & Dennis, 1977), are observed and recorded in the observation period of 21 to 24 minutes following the formalin injection. The behaviour of the animals after administration of the substance (n=10 per dose of substance) was compared with a control group which received vehicle (n=10). On the basis of the quantification of the pain behaviour, the action of the substance in the formalin test was determined as the change in percent compared with the control. The ED50 calculations (ED50=mean effective dose) were carried out by means of regression analysis according to the method of Litchfield and Wilcoxon (Litchfield, J. T., Wilcoxon, J. J., 1949, J. Pharmacol. Exp. Ther. 96, 99—113). The time of administration of the compound before the formalin injection was chosen as 5 min in the case of intravenous administration and 30 min in the case of oral administration.

SMILES | EC50 (KCNQ2/3 channels) [µM] | Emax (KCNQ2/3 channels) [%] | Formalin Test mouse IV effect @ dose [mg/kg] ([1]; 1 mg/kg) [% @ 1] | Formalin Test mouse IV effect @ dose [mg/kg] ([1]; 0.68 mg/kg) [% @ 0.68]
O=C(CC1CCCCC1)Nc1cc2ccccc2nc1SCCS(=O)(=O)c1ccccc1 [Example 1, 2-cyclohexyl-N-(2-(2-(phenylsulfonyl)ethylthio)quinolin-3-yl)acetamide] | 0.253 | 80 |  | 
O=C(Cc1cccs1)Nc1cc2ccccc2nc1SCCS(=O)(=O)c1ccccc1 [Example 2, N-(2-(2-(phenylsulfonyl)ethylthio)quinolin-3-yl)-2-(thiophen-2-yl)acetamide] | 0.067 | 80 |  | 
O=C(CCC1CCCCC1)Nc1cc2ccccc2nc1SCCS(=O)(=O)c1ccccc1 [Example 3, 3-Cyclohexyl-N-(2-(2-(phenylsulfonyl)ethylthio)quinolin-3-yl)propanamide] | 0.174 | 97 |  | 
CCCCCSc1nc2ccccc2cc1NC(=O)Cc1cccs1 [Example 4, N-(2-(pentylthio)quinolin-3-yl)-2-(thiophen-2-yl)acetamide] | 0.107 | 60 |  | 
O=C(Cc1cccs1)Nc1cc2ccccc2nc1SCCSc1ccccc1 [Example 6, N-(2-(2-(phenylthio)ethylthio)quinolin-3-yl)-2-(thiophen-2-yl)acetamide] |  | 25 |  | 
CCSc1nc2ccccc2cc1NC(=O)Cc1cccs1 [Example 7, N-(2-(ethylthio)quinolin-3-yl)-2-(thiophen-2-yl)acetamide] | 0.156 | 93 | 24 | 
CCSc1nc2ccccc2cc1NC(=O)CC(C)(C)C [Example 9, N-(2-(ethylthio)quinolin-3-yl)-3,3-dimethylbutanamide] | 0.414 | 142 |  | 
CCSc1nc2cc(C(F)(F)F)ccc2cc1NC(=O)Cc1cccs1 [Example 10, N-[2-Ethylsulfanyl-7-(trifluoromethyl)quinolin-3-yl]-2-thiophen-2-yl-acetamide] | 1.15 | 57 |  | 
CCSc1nc2cc(C(F)(F)F)ccc2cc1NC(=O)CC(C)(C)C [Example 11, N-[2-ethylsulfanyl-7-(trifluoromethyl)-quinolin-3-yl]-3,3-dimethyl-butyramide] |  | 35 |  | 
CCSc1nc2cc(C(F)(F)F)ccc2cc1NC(=O)CCC1CCCC1 [Example 12, 3-cyclopentyl-N-[2-ethylsulfanyl-7-(trifluoromethyl)-quinolin-3-yl]propionamide] | 5.02 | 62 |  | 
CCSc1nc2ccccc2cc1NC(=O)CC1CCCCC1 [Example 13, 2-Cyclohexyl-N-(2-ethylsulfanyl-quinolin-3-yl)-acetamide] | 0.15 | 101 |  | 
CCSc1nc2ccccc2cc1NC(=O)CC1CC2CCC1C2 (stereo not shown) [Example 14, 2-(5-bicyclo[2.2.1]heptanyl)-N-(2-ethylsulfanyl-quinolin-3-yl)-acetamide] | 0.204 | 179 |  | 
CCSc1nc2ccccc2cc1NC(=O)CCC1CCCC1 [Example 15, 3-cyclopentyl-N-(2-ethylsulfanyl-quinolin-3-yl)-propionamide] | 0.082 | 143 | 17 | 
CCSc1nc2cc(C(F)(F)F)ccc2cc1NC(=O)CC1CC2CCC1C2 (stereo not shown) [Example 16, 2-(5-bicyclo[2.2.1]heptanyl)-N-[2-ethylsulfanyl-7-(trifluoromethyl)-quinolin-3-yl]-acetamide] | 0.647 | 66 |  | 
CCSc1nc2cc(C(F)(F)F)ccc2c(C)c1NC(=O)CCC1CCCC1 [Example 17, 3-cyclopentyl-N-[2-ethylsulfanyl-4-methyl-7-(trifluoromethyl)-quinolin-3-yl]-propionamide] | 0.066 | 107 |  | 90
CCSc1nc2cc(C(F)(F)F)ccc2c(C)c1NC(=O)Cc1cccs1 [Example 18, N-[2-ethylsulfanyl-4-methyl-7-(trifluoromethyl)-quinolin-3-yl]-2-thiophen-2-yl-acetamide] | 0.094 | 140 | 43 | 
